Assay results from US12257290B2, “PIC1 inhibition of myeloperoxidase oxidative activity in an animal model” (priority 2018, dated 2025).
Ends that are not written are not given here.

What was measured:
[1] = biological target: T1, MPO (Homo sapiens, UniProt P05164); assay: MPO-mediated oxidation of TMB (FIG. 16); type: biochemical; conditions: FIG. 16, dose-response, increasing MPO concentrations
T1 sequence (P05164 49-745): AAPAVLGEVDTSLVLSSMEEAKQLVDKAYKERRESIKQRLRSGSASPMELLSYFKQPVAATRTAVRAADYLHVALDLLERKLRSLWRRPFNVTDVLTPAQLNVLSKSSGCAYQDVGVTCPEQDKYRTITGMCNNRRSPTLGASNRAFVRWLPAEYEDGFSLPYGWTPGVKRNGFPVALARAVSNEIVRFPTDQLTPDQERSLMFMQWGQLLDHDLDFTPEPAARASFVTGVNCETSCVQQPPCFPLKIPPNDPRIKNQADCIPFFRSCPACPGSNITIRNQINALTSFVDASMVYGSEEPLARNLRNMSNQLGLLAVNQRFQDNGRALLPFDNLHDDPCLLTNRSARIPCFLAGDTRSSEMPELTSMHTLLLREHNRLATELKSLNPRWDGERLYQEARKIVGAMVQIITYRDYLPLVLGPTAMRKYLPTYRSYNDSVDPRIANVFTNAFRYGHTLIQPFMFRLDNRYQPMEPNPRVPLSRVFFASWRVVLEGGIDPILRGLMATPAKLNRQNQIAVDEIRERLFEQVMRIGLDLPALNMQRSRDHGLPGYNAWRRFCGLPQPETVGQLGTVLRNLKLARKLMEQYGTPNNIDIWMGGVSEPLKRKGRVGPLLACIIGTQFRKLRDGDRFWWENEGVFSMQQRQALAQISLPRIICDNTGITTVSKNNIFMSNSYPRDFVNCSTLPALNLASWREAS
Description: FIG. 16 is a graph showing PIC1 dose-response inhibition of MPO-mediated oxidation of TMB for increasing concentrations of MPO.
PA-dPEG24 can inhibit the peroxidase effect of MPO in clinical CF sputum samples ex vivo as well as for purified MPO in vitro. […] PA-dPEG24 can inhibit NET formation in vitro, such as NET formation stimulated by any of phorbol 12-myristate 13-acetate (PMA), purified MPO, and immune complex-activated human sera.

[2] = 'Two-hit' TRALI model: LPS then 30% mismatched human RBC transfusion; type: in vivo, Wistar rats
Method: In this Example, Wistar rats were primed with lipopolysaccharide followed by 30% transfusion of mismatched erythrocytes, against which the rats have preexisting antibodies. Sham and vehicle animals were used as controls with a subgroup of animals receiving PIC1 two minutes before transfusion. At 4 hours, blood was isolated for complete blood count. Isolated lung tissue was stained with hematoxylin and eosin and myeloperoxidase (MPO) activity in lung tissue was quantified in a functional assay. Free DNA in plasma was detected by PicoGreen staining.
Lung tissue stained with H&E was analyzed by a clinician blinded to the experimental groups (vehicle only and PIC1-treated animals). Neutrophil infiltration and cell wall thickening were scored on a scale of 0-4: 0=normal lungs, 1=minor lung involvement, 2=moderate lung involvement, 3=serious lung involvement, 4=severe lung involvement.
A myeloperoxidase (MPO) activity assay was conducted as follows. Frozen lung tissue was diced and homogenized on ice in 50 mM potassium phosphate, and centrifuged at 10,000 RPM at 4° C. for 15 minutes after which the supernatant was discarded. To solubilize MPO from the neutrophils in lung tissue, the pellet was resuspended in […] 50 mM hexadecyltrimethylammonium bromide (HTAB), homogenized by sonication and snap frozen in liquid nitrogen. This process was repeated twice and samples were then centrifuged at 10,000 RPM at 4° C. for 10 minutes and supernatant collected.
Peroxidase activity in these samples was measured using 10-actyl-3,7-dihydroxyphenoxazine (ADHP, Amplex Red) following MPO antibody capture from samples as previously described. Fluorescence was read from […] in […] which provided twenty-five data points per well at an excitation wavelength of 535 nm and emission wavelength of 590 nm using a BioTek microplate reader. Purified MPO was used as a positive control and phosphate buffered saline (PBS) as a negative control. All activity assays were performed in triplicate.
Free DNA was measured by PicoGreen in rat plasma as previously described. Briefly, plasma samples were diluted 1:10 in 10 mM Tris-HCl, 1 mM EDTA, pH 8.0 (TE) buffer and 50 uL of each sample was added to the wells along with 50 uL of a 1:200 dilution of PicoGreen (Life Technologies) and incubated at room temperature for 10 minutes, protected from light. A DNA standard curve was prepared in TE Buffer. The fluorescence was then read at an excitation wavelength of 485 nm and an emission wavelength of 520 nm using a BioTek microplate reader. All free DNA measurements were done in triplicate.
For the ‘two-hit’ model, rats were sedated as above and lipopolysaccharide (LPS, from Salmonella enterica serotype enteritidis, 2 mg/kg [Millipore-Sigma]) was administered intravascularly through the indwelling jugular catheter as the ‘first-hit’ similar to other TRALI models (reviewed in references). This was followed 30 minutes later by 30% mismatched RBC transfusion as the ‘second-hit’. Blood samples were collected prior to LPS administration and at 4 hours after RBC transfusion for analysis of blood chemistries (SuperChem and CBC, Antech Diagnostics). Upon completion of the final blood draw, the animals were euthanized using isofluorane and guillotine. A necropsy was completed to collect organs for histopathology. Lungs acquired from each animal were weighed and then stored in formalin or frozen at −70° C. Hematoxylin and eosin (H&E) stained sections of formalin fixed tissue were reviewed in a blinded fashion.
To determine if prophylactic administration of PIC1 would attenuate TRALI pathogenesis, this transfusion-based antibody-initiated complement-mediated TRALI model was utilized. Twenty-eight minutes after IV LPS infusion, 160 mg/kg PIC1 or vehicle control was administered IV followed by the 30% mismatched RBC transfusion. […]

## IALILEPICCQERAA-dPEG24 (cysteine pairing not given here) [PA-dPEG24, 15-amino acid PEGylated peptide, 24 PEG moieties at the C-terminus]
[1]
  MPO-mediated oxidation of TMB: inhibits MPO-mediated oxidation
[2]; 160 mg/kg IV 2 min before transfusion, 4 h after transfusion, vs vehicle p=0.001
  lung weight: significant reduction
[2]; 160 mg/kg IV prophylactic, 4 h after transfusion
  lung histology (H&E): decreased injury to the lung architecture
[2]; 5 minutes read, vs vehicle p=0.005
  MPO activity in lung tissue (Amplex Red): significantly reduced
[2]; 10 minutes read, vs vehicle p=0.002
  MPO activity in lung tissue (Amplex Red): significantly reduced
[2]; scale 0-4, 160 mg/kg IV, vs vehicle p=0.003
  lung injury score (neutrophil infiltration and cell wall thickening), mean: 1.5
[2]; vs vehicle p=0.02
  free DNA in plasma (PicoGreen): significantly reduced
[2]; vs vehicle p=0.043
  blood levels of white blood cells: significant increase
[2]; vs vehicle p=0.048
  blood levels of lymphocytes: significant increase
[2]; vs vehicle p=0.101
  circulating neutrophils: trends towards increased numbers
[2]; vs vehicle p=0.229
  circulating monocytes: trends towards increased numbers
[2]; vs vehicle, data not shown
  blood levels of creatinine, BUN/creatinine and AST: reduction
  kidney weights: reduced kidney weights
